Data as given in PMC6085608, “Glutathione S-transferases play a role in the detoxification of flumethrin and chlorpyrifos in Haemaphysalis longicornis” (Parasites & Vectors, 2018).

Experiments:
recombinant HlGST2 = target: T1, recombinant HlGST2 (Haemaphysalis longicornis, UniProt A0A2Z6FA39); test: CDNB conjugation kinetics with […] acaricide; type: biochemical; settings: inhibitor, noncompetitive, 5 mM glutathione, CDNB 0.125-2 mM, pH 7.5, 25 °C
T1 construct: gene GST

recombinant HlGST = target: T2, recombinant HlGST (Haemaphysalis longicornis, UniProt Q6JVN0); test: CDNB conjugation kinetics with […] acaricide; type: biochemical; settings: 5 mM glutathione, CDNB 0.125-2 mM, pH 7.5, 25 °C
T2 construct: gene GST
T2 sequence (Q6JVN0 1-223): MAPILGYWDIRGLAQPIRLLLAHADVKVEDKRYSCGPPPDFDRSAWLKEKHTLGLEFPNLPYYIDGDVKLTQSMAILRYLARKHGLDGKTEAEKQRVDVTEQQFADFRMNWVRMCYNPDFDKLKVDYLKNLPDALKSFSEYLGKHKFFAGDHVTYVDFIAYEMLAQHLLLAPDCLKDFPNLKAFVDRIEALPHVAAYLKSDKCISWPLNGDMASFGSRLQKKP

T1 sequence (A0A2Z6FA39 1-230): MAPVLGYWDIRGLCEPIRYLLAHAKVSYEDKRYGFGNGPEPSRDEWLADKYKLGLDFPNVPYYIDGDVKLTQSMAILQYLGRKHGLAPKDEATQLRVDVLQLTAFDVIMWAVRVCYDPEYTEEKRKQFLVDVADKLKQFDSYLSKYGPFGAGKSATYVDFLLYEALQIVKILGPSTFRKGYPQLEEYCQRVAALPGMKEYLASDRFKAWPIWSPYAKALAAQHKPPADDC

Row | Compound | CDNB conjugation kinetics with 0.1 mM acaricide (recombinant HlGST2) | CDNB conjugation kinetics with 0.1 mM acaricide (recombinant HlGST; apparent activator (lowers Km for CDNB)) | CDNB conjugation kinetics with 0.1 mM acaricide (recombinant HlGST; inhibitor, uncompetitive)
1 | CCOP(=S)(OCC)Oc1nc(Cl)c(Cl)cc1Cl [chlorpyrifos] | chlorpyrifos and cypermethrin showed noncompetitive inhibition of recombinant HlGST2 |  | 
2 | CCOP(=S)(OCC)Oc1ccc2c(C)c(Cl)c(=O)oc2c1 [coumaphos] |  | Coumaphos significantly decreased the Km of recombinant HlGST, indicating the apparent activation | 
3 | CC1(C)C(C=C(Cl)Cl)C1C(=O)OC(C#N)c1cccc(Oc2ccccc2)c1 (centres unmarked) [cypermethrin] | chlorpyrifos and cypermethrin showed noncompetitive inhibition of recombinant HlGST2 |  | flumethrin and cypermethrin showed uncompetitive inhibition of recombinant HlGST
4 | CC1(C)C(C=C(Cl)c2ccc(Cl)cc2)C1C(=O)OC(C#N)c1ccc(F)c(Oc2ccccc2)c1 (centres unmarked) [flumethrin] |  |  | flumethrin and cypermethrin showed uncompetitive inhibition of recombinant HlGST
